Data from patent publication US8492559B2, “Substituted indole compounds” (Gruenenthal GmbH, priority 2009, dated 2013).

Each compound was assayed against T1, B1R receptor of the rat (rB1R) (Rattus norvegicus, UniProt P97583) (assay: Functional investigation on the bradykinin 1 receptor (B1R), FLIPR Ca2+ assay, rB1R cells). Settings: CHO-K1, 10 μM test substance; CHO K1 cells with rat B1R; agonist Des-Arg9 bradykinin; % of maximum achievable inhibition; read-out: B1R antagonism, rat [10 μM] % inhibition.
T1 construct: expressed in transfected cells; host or cells: CHO K1 cells
T1 sequence (P97583 1-337): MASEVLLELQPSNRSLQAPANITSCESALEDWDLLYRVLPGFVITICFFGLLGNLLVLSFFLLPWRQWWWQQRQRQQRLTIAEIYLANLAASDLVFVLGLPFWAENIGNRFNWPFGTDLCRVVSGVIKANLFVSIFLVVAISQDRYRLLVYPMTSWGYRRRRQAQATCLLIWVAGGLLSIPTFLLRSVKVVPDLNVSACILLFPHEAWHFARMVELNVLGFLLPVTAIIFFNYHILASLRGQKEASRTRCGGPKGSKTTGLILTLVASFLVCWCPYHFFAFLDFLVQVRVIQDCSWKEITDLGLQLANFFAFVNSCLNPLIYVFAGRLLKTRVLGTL
Type: cell-based
Protocol: The indication in % activation is based on the Ca^2+ signal after addition of Lys-Des-[…] bradykinin (0.5 nM) or Des-[…] bradykinin (100 nM). Antagonists lead to a suppression of the Ca^2+ influx following administration of the agonist. The % inhibition in comparison with the maximum achievable inhibition is indicated. […] According to this assay, the Ca^2+ inflow through the channel is quantified with the aid of a Ca^2+-sensitive dye (Fluo-4 type, Molecular Probes Europe BV, Leiden, Netherlands) in a fluorescent imaging plate reader (FLIPR, Molecular Devices, Sunnyvale, USA). […] For functional investigations these cells are plated-out onto black 96-well plates with a clear base (BD Biosciences, Heidelberg, Germany or Greiner, Frickenhausen, Germany) in a density of 20,000-35,000 cells/well. Overnight the cells are incubated at 37° C. and 5% CO2 in culture medium (hB1R cells: Ham's Nutrient Mixture F12, Gibco Invitrogen GmbH, Karlsruhe, Germany or DMEM, Sigma-Aldrich, Taufkirchen, Germany; rB1R cells: D-MEM/F12, Gibco Invitrogen, Karlsruhe, Germany) with 10 vol. % FBS (foetal bovine serum, Gibco Invitrogen GmbH, Karlsruhe, Germany or PAN Biotech GmbH, Aidenbach, Germany). On the following day the cells are loaded with 2.13 μM Fluo-4 (Molecular Probes Europe BV, Leiden, Netherlands) in HBSS buffer (Hank's buffered saline solution, Gibco Invitrogen GmbH, Karlsruhe, Germany) with 2.5 mM probenecid (Sigma-Aldrich, Taufkirchen, Germany) and 10 mM HEPES (Sigma-Aldrich, Taufkirchen, Germany) for 60 min at 37° C. […] Sigma-Aldrich, Taufkirchen, Germany), 5.6 mM glucose and 0.05% gelatine (Merck KGaA, Darmstadt, Germany) is added. After a further incubation of 20 minutes at room temperature, the plates are inserted into the FLIPR for Ca^2+ measurement. Alternatively they are washed with buffer A (15 mM HEPES, 80 mM NaCl, 5 mM KCl, 1.2 mM CaCl2, 0.7 mM MgSO4, 2 g/l glucose, 2.5 mM probenecid) and loaded with buffer A with added 2.5 μM Fluo-4 and 0.025% Pluronic F127 (Sigma-Aldrich, Taufkirchen, Germany). The cells are then washed twice with buffer A and incubated for 30 minutes with buffer A, which additionally contains 0.05% BSA and 0.05% gelatine, at room temperature and then used for Ca^2+ measurement in the FLIPR. The Ca^2+-dependent fluorescence is measured here before and after addition of substances (λex=488 nm, λem=540 nm). The quantification is performed by measuring the highest fluorescence intensity (FC, fluorescence counts) over time. The FLIPR protocol comprises two additions of substance. […] Lys-Des-[…] bradykinin>=50 nM; rB1R: […] Antagonists lead to a suppression of the Ca^2+ inflow. The % inhibition in comparison with the maximum achievable inhibition is calculated. The substances are added in varying concentrations in order to determine the IC50 value. Double or triple determinations (n=2 or n=3) are performed and these are repeated in at least one further independent experiment (N>=2).

| SMILES | inhibition at 10 µM |
| --- | --- |
| COc1cc(C)c(S(=O)(=O)Nc2cccc3ccn(CCC(=O)N4CCN(CCCN(C)C)CC4)c23)c(C)c1 [G_CC-44, N-[1-[3-[4-(3-Dimethylamino-propyl)-piperazin-1-yl]-3-oxo-propyl]-1H-indol-7-yl]-4-methoxy-2,6-dimethyl-benzenesulfonic acid amide] | 73% |
| COc1cc(C)c(S(=O)(=O)Nc2cccc3ccn(CCC(=O)N4CCC(O)(c5ccccn5)CC4)c23)c(C)c1 [G_CC-45, N-[1-[3-(4-Hydroxy-4-pyridin-2-yl-piperidin-1-yl)-3-oxo-propyl]-1H-indol-7-yl]-4-methoxy-2,6-dimethyl-benzenesulfonic acid amide] | 59% |
| COc1cc(C)c(S(=O)(=O)Nc2cccc3ccn(CCC(=O)N(C)CCCN4CCC(c5cccs5)(N(C)C)CC4)c23)c(C)c1 [G_CC-46, N-[3-(4-Dimethylamino-4-thiophen-2-yl-piperidin-1-yl)-propyl]-3-[7-[[(4-methoxy-2,6-dimethyl-phenyl)sulfonyl]amino]-1H-indol-1-yl]-N-methyl-propionamide] | 94% |
| COc1cc(C)c(S(=O)(=O)Nc2cccc3ccn(CCC(=O)N4CCC(c5ccccc5)(N(C)C)CC4)c23)c(C)c1 [G_CC-48, N-[1-[3-(4-Dimethylamino-4-phenyl-piperidin-1-yl)-3-oxo-propyl]-1H-indol-7-yl]-4-methoxy-2,6-dimethyl-benzenesulfonic acid amide] | 59% |
| COc1cc(C)c(S(=O)(=O)Nc2cccc3ccn(CCC(=O)N(C)CCCN4CCC(c5ccccc5)(N(C)C)CC4)c23)c(C)c1 [G_CC-49, N-[3-(4-Dimethylamino-4-phenyl-piperidin-1-yl)-propyl]-3-[7-[[(4-methoxy-2,6-dimethyl-phenyl)sulfonyl]amino]-1H-indol-1-yl]-N-methyl-propionamide] | 92% |
| COc1cc(C)c(S(=O)(=O)Nc2cccc3ccn(CCC(=O)NC4CCC(c5ccccc5)(N5CCC5)CC4)c23)c(C)c1 (stereo not drawn) [G_CC-50, N-[4-(Azetidin-1-yl)-4-phenyl-cyclohexyl]-3-[7-[[(4-methoxy-2,6-dimethyl-phenyl)sulfonyl]amino]-1H-indol-1-yl]-propionamide] | 62% |
| COc1cc(C)c(S(=O)(=O)Nc2cccc3ccn(CCC(=O)NCCN4CCC(c5cccs5)(N(C)C)CC4)c23)c(C)c1 [G_CC-51, N-[2-(4-Dimethylamino-4-thiophen-2-yl-piperidin-1-yl)-ethyl]-3-[7-[[(4-methoxy-2,6-dimethyl-phenyl)sulfonyl]amino]-1H-indol-1-yl]-propionamide] | 93% |
| O=C(CCn1ccc2cccc(NS(=O)(=O)c3ccccc3C(F)(F)F)c21)N1CCC2(CC1)CCN(c1ccncc1)CC2 [G_CC-52, N-[1-[3-Oxo-3-(3-pyridin-4-yl-3,9-diazaspiro[5.5]undecan-9-yl)-propyl]-1H-indol-7-yl]-2-(trifluoromethyl)-benzenesulfonic acid amide] | 100% |
| O=C(Cn1ccc2cccc(NS(=O)(=O)c3ccccc3C(F)(F)F)c21)N1CCC2(CC1)CCN(c1ccncc1)CC2 [G_CC-53, N-[1-[2-Oxo-2-(3-pyridin-4-yl-3,9-diazaspiro[5.5]undecan-9-yl)-ethyl]-1H-indol-7-yl]-2-(trifluoromethyl)-benzenesulfonic acid amide] | 101% |
| CCN1CCN(CCCNC(=O)CCn2ccc3cccc(NS(=O)(=O)c4c(C)cc(OC)cc4C)c32)CC1 [G_CC-56, N-[3-(4-Ethyl-piperazin-1-yl)-propyl]-3-[7-[[(4-methoxy-2,6-dimethyl-phenyl)sulfonyl]amino]-1H-indol-1-yl]-propionamide] | 54% |
| COc1cc(C)c(S(=O)(=O)Nc2ccc3ccn(CC(=O)N4CCC(OCCN5CCCC5)(c5cccnc5)CC4)c3c2)c(C)c1 [G_CC-57, 4-Methoxy-2,6-dimethyl-N-[1-[2-oxo-2-[4-pyridin-3-yl-4-(2-pyrrolidin-1-yl-ethoxy)-piperidin-1-yl]-ethyl]-1H-indol-6-yl]-benzenesulfonic acid amide] | 100% |
| Cc1cc(S(=O)(=O)Nc2cccc3ccn(CCC(=O)N4CCC(CCN5CCCC5)CC4)c23)c(C)cc1Cl [G_CC-60, 4-Chloro-2,5-dimethyl-N-[1-[3-oxo-3-[4-(2-pyrrolidin-1-yl-ethyl)-piperidin-1-yl]-propyl]-1H-indol-7-yl]-benzenesulfonic acid amide] | 87% |
| Cc1cc(S(=O)(=O)Nc2cccc3ccn(CCC(=O)NCCC4CCN(c5ccncc5)CC4)c23)c(C)cc1Cl [G_CC-70, 3-[7-[[(4-Chloro-2,5-dimethyl-phenyl)sulfonyl]amino]-1H-indol-1-yl]-N-[2-(1-pyridin-4-yl-piperidin-4-yl)-ethyl]-propionamide] | 100% |

Second part, the compound after the results:

| inhibition at 10 µM | SMILES |
| --- | --- |
| 87% | Cc1cc(S(=O)(=O)Nc2cccc3ccn(CCC(=O)N4CCN(C5CCN(C)CC5)CC4)c23)c(C)cc1Cl [G_CC-59, 4-Chloro-2,5-dimethyl-N-[1-[3-[4-(1-methyl-piperidin-4-yl)-piperazin-1-yl]-3-oxo-propyl]-1H-indol-7-yl]-benzenesulfonic acid amide] |
| 79% | Cc1cc(S(=O)(=O)Nc2cccc3ccn(CCC(=O)N4CCC(N5CCN(C)CC5)CC4)c23)c(C)cc1Cl [G_CC-61, 4-Chloro-2,5-dimethyl-N-[1-[3-[4-(4-methyl-piperazin-1-yl)-piperidin-1-yl]-3-oxo-propyl]-1H-indol-7-yl]-benzenesulfonic acid amide] |
| 100% | O=C(CCn1ccc2ccc(N3Cc4cccc(Cl)c4C3=O)cc21)N1CCN(c2ccncc2)CC1 [G_CC-63, 7-Chloro-2-[1-[3-oxo-3-(4-pyridin-4-yl-piperazin-1-yl)-propyl]-1H-indol-6-yl]-2,3-dihydro-isoindol-1-one] |
| 89% | CN1CCC(CN2CCN(C(=O)CCn3ccc4ccc(N5Cc6cccc(Cl)c6C5=O)cc43)CC2)CC1 [G_CC-64, 7-Chloro-2-[1-[3-[4-[(1-methyl-piperidin-4-yl)-methyl]-piperazin-1-yl]-3-oxo-propyl]-1H-indol-6-yl]-2,3-dihydro-isoindol-1-one] |
| 53% | Cc1cc(S(=O)(=O)Nc2ccc3ccn(CCC(=O)N4CCC5(CC4)CCN(c4ccncc4)CC5)c3c2)c(C)cc1Cl [G_CC-65, 4-Chloro-2,5-dimethyl-N-[1-[3-oxo-3-(3-pyridin-4-yl-3,9-diazaspiro[5.5]undecan-9-yl)-propyl]-1H-indol-6-yl]-benzenesulfonic acid amide] |
| 52% | O=C(CCn1ccc2ccc(N3Cc4cccc(Cl)c4C3=O)cc21)N1CCC2(CC1)CCN(Cc1ccc(F)cc1)C2=O [G_CC-66, 8-[3-[6-(4-Chloro-3-oxo-1,2-dihydro-isoindol-2-yl)-1H-indol-1-yl]-propanoyl]-3-[(4-fluorophenyl)-methyl]-3,8-diazaspiro[4.5]decan-4-one] |
| 69% | O=C(CCn1ccc2ccc(N3Cc4cccc(Cl)c4C3=O)cc21)N1CCC(Oc2ccncc2)CC1 [G_CC-68, 7-Chloro-2-[1-[3-oxo-3-(4-pyridin-4-yloxy-piperidin-1-yl)-propyl]-1H-indol-6-yl]-2,3-dihydro-isoindol-1-one] |
| 65% | O=C(CCn1ccc2ccc(N3Cc4cccc(Cl)c4C3=O)cc21)N1CCC(O)(c2cccnc2)CC1 [G_CC-69, 7-Chloro-2-[1-[3-(4-hydroxy-4-pyridin-3-yl-piperidin-1-yl)-3-oxo-propyl]-1H-indol-6-yl]-2,3-dihydro-isoindol-1-one] |
